In brackets after ≈: the same amount, converted by molar mass. Like-named read-outs stand apart in the source and are kept apart here.
How the values were obtained:
[1] = tested on: Pseudomonas aeruguinosa 347; test: Minimum growth inhibiting concentration (Table 1); format: cell-based; settings: TSBI, pH 7.2, 37° C., 48 hours
Protocol: (§1) For information, the minimum growth inhibiting concentration is a value
(§2) concerning microorganisms cultivated in TSBI the pH of which was adjusted
(§3) to 7.2, each bacteria being incubated at 37° C. for 48 hours.

[2] = tested on: Escherichia coli O-55; test: Minimum growth inhibiting concentration (Table 1); format: cell-based; settings: O55, TSBI, pH 7.2, 37° C., 48 hours
Protocol: as §1, §2, §3

[3] = tested on: Erysiperothrix rhusiopatiae Agata; test: Cure of mice infected with Erysiperothrix rhusiopatiae (Table 5); format: in vivo; settings: Mus musculus, 168 h, observed 7 days, read-out: ED50 when used with Erysiperothrix rhusiopatiae
Protocol: Mice of body weight about 20 grams were used, and 0.2 ml of a culture liquid obtained by cultivating Erysiperothrix rhusiopatiae Agata for 24 hours at 37° C. in a 10% calf serum TSB added culture medium (amount of inoculated germs 4.0 × 10^7) was injected abdominally.

[4] = tested on: Staphlococcus aureus Kawanabe II; test: Curative effects on Staphlomycosis of fowl (Table 7); format: in vivo; settings: two weeks, chicks died / chicks tested
Protocol: A culture liquid obtained by cultivation of Staphlococcus aureus Kawanabe II for 20 hours at 37° C. in a heart infusion culture medium was injected intravenously into 3-week-old chicks at the rate of 0.2 ml per chick. Nitrofuran derivatives mixed in amounts indicated below in the feeds were then fed these chicks for two weeks. In the table the expression, "death rate" has the following meaning. For instance, the value 3/9 denotes that three out of the nine chicks submitted to the test died.

[5] = tested on: Salmonella purollum; test: Minimum growth inhibiting concentration, microorganisms that infect domestic animals (Table 2); format: cell-based; settings: 42 strains, TSB-Agar, 48 hours
Protocol: (§4) The minimum growth inhibiting concentrations were measured under identical conditions as in the case of Table 1, except that culture media indicated above were used and, in the case of that asterisked, the culture was carried out for 5 days, while the others were cultivated for 48 hours.

[6] = tested on: Bordetella bronchiseptica; test: as above; format: cell-based; settings: 4 strains, Heart infusion Agar, 48 hours
Protocol: as §4

[7] = tested on: Pasteurella multocida Kobe-5; test: as above; format: cell-based; settings: KOBE5, TSB-Agar 10% rabbit blood added, 48 hours
Protocol: as §4

[8] = tested on: Escherichia coli; test: as above; format: cell-based; settings: 36 strains, TSB-Agar, 48 hours
Protocol: as §4

[9] = tested on: Erysiperothrix rhusiopatiae Agata; test: as above; format: cell-based; settings: TSB-Agar 10% rabbit blood added, 48 hours
Protocol: as §4

[10] = tested on: Hemophilus galinalum; test: as above; format: cell-based; settings: 2 strains, TSB-Agar 10% rabbit blood added, 48 hours
Protocol: as §4

[11] = tested on: Mycolasma galli-septicum; test: as above; format: cell-based; settings: 120 h, 6 strains, Hofstad, 5 days
Protocol: as §4

[12] = tested on: Staphylococcus aureus; test: as above; format: cell-based; settings: 15 strains, TSB-agar, 48 hours
Protocol: as §4

| SMILES | MIC [1] [µg/mL] | MIC [2] [µg/mL] | ED50 ([3]; oral administration) [mg/kg] | ED50 ([3]; sc, subcutaneous injection) [mg/kg] | Death rate ([4]; 50 ppm in feed) | Death rate ([4]; 100 ppm in feed) | Death rate ([4]; 200 ppm in feed) | Death rate ([4]; 400 ppm in feed) | Death rate ([4]; 800 ppm in feed) | MIC [5] [µg/mL] | MIC [6] [µg/mL] | MIC [7] [µg/mL] | MIC [8] [µg/mL] | MIC [9] [µg/mL] | MIC [10] [µg/mL] | MIC [11] [µg/mL] | MIC [12] [µg/mL] |
| --- | --- | --- | --- | --- | --- | --- | --- | --- | --- | --- | --- | --- | --- | --- | --- | --- | --- |
| O=C(NCC(O)CO)c1ccc(C=Cc2ccc([N+](=O)[O-])o2)cc1 (stereo not shown) [Example 9, 3-Para-[2'-(5"-nitro-2"-furyl)-vinyl]-benzoylamino-1,2-propanediol] | > 25 | 3.13 (≈ 9.42 µM) | 25.5 | 42.1 | 3/9 | 2/9 | 2/9 | 2/9 | 2/9 | 1.6 to 25 (≈ 4.81 to 75.2 µM) | 25 (≈ 75.2 µM) | 0.08 (≈ 0.241 µM) | 0.5 to 12.5 (≈ 1.5 to 37.6 µM) | 0.15 (≈ 0.451 µM) | 0.1 to 1.5 (≈ 0.301 to 4.51 µM) | 0.2 (≈ 0.602 µM) | 0.2 to 25 (≈ 0.602 to 75.2 µM) |
| O=C(NCCO)c1ccc(C=Cc2ccc([N+](=O)[O-])o2)cc1 [Example 1, 2-Para-[2'-(5"-nitro-2"-furyl)-vinyl]-benzoylaminoethanol] | 12.5 (≈ 41.4 µM) | 3.13 (≈ 10.4 µM) | 21.8 | 50 | 3/9 | 2/9 | 2/9 | 2/9 | 1/9 | 1.6 to 12.5 (≈ 5.29 to 41.4 µM) | 25 (≈ 82.7 µM) | 0.15 (≈ 0.496 µM) | 0.5 to 25 (≈ 1.65 to 82.7 µM) | 0.07 (≈ 0.232 µM) | 0.04 to 1.5 (≈ 0.132 to 4.96 µM) | 0.1 (≈ 0.331 µM) | 0.2 to 25 (≈ 0.662 to 82.7 µM) |

From US3994882A, “Nitrofuran derivatives, process for the preparation thereof and compositions containing same as active ingredient” (Kabushiki Kaisha Ueno Seiyaku Oyo Kenkyujo, priority 1974, dated 1976)
